Laboratory results as given in patent publication US6355799B1, “Substituted benzene compounds, process for their preparation, and herbicidal and defoliant compositions containing them” (ISK Americas Incorporated, priority 1997, dated 2002).

Legend:
Type in all cases: in vivo
[1] = tested on: upland rice (Oryza sp., var. Tebonnet, RICE); test: Pre-emerge test, crop safety; conditions: pre-emerge, 14 days after application, rating scale 0-100
Summary of the method: (§1)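 Fourteen days after spraying, crop and weed injury was graded visually from 0, no effect, to 100, every plant dead. Test substances were dissolved in acetone and applied at 15–1000 g ai/ha with a flat-fan nozzle. Application was either pre-emergence, one day after sowing, or post-emergence at the 2–3 leaf stage.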

[2] = tested on: field corn (Zea mays L., var. Dekalb 535, CORN); test: Pre-emerge test, crop safety; conditions: pre-emerge, 14 days after application, rating scale 0-100
Summary of the method: as §1

[3] = tested on: redroot pigweed (Amaranthus retroflexus, AMARE); test: Post-emerge test, greenhouse herbicide activity screening; conditions: post-emerge, 14 days after application
Summary of the method: (§2)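 Sandy loam pots; pre-emerge: sown 1 d pre-spray, surface-watered after, then bottom-watered. Post-emerge: sown 8–21 d before, 2–3 leaf stage, + 0.25% v/v NIS, bottom-watered. Acetone, 187 l/ha track spray, 15–1000 g ai/ha. 0–100 injury score, day 14.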

[4] = tested on: sicklepod (Cassia obtusifolia, CASOB); test: as above; conditions: post-emerge, 14 days after application, rating scale 0-100
Summary of the method: as §2

[5] = tested on: common ragweed (Ambrosia artemisizfolia L., AMBEL); test: as above; conditions: post-emerge, 14 days after application, rating scale 0-100
Summary of the method: as §2

[6] = tested on: lambsquarters (Chenopodium album, CHEAL); test: as above; conditions: post-emerge, 14 days after application, rating scale 0-100
Summary of the method: as §2

[7] = tested on: large crabgrass (Digitaria sanguinalis, DIGSA); test: as above; conditions: post-emerge, 14 days after application, rating scale 0-100
Summary of the method: as §2

[8] = tested on: ivyleaf morningglory (Ipomoea hederacea, IPOHE); test: as above; conditions: post-emerge, 14 days after application, rating scale 0-100
Summary of the method: as §2

[9] = tested on: johnsongrass (Sorghum halepense, SORHA); test: as above; conditions: post-emerge, 14 days after application, rating scale 0-100
Summary of the method: as §2

[10] = tested on: barnyardgrass (Echinochloa crus-galli, ECHCG); test: as above; conditions: post-emerge, 14 days after application, rating scale 0-100
Summary of the method: as §2

[11] = tested on: green foxtail (Setaria viridis, SETVI); test: as above; conditions: post-emerge, 14 days after application, rating scale 0-100
Summary of the method: as §2

[12] = tested on: velvetleaf (Abutilon theophrasti, ABUTH); test: as above; conditions: post-emerge, 14 days after application, rating scale 0-100
Summary of the method: as §2

[13] = tested on: redroot pigweed (Amaranthus retroflexus, AMARE); test: Pre-emerge test, greenhouse herbicide activity screening; conditions: pre-emerge, 14 days after application, rating scale 0-100
Summary of the method: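 Compounds in acetone were track-sprayed at 15-1000 g ai/ha (187 l/ha) on sandy loam pots: pre-emerge one day after seeding, post-emerge at 2-3 leaf stage with 0.25% v/v non-ionic surfactant. Phytotoxicity was rated 14 days later on a 0 (no damage) to 100 (complete death) scale.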

[14] = tested on: upland rice (Oryza sp., var. Tebonnet, RICE); test: Post-emerge test, crop safety; conditions: post-emerge, 14 days after application, rating scale 0-100
Summary of the method: (§3)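 Compounds in acetone were track-sprayed at 187 l/ha, 15–1000 g ai/ha, onto sandy loam pots. Pre-emerge seeds were sown one day before spraying, with surface watering afterwards. Post-emerge plants were at the 2–3 leaf stage and sprayed with 0.25% v/v non-ionic surfactant. Injury was rated 0–100 at 14 days.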

[15] = tested on: field corn (Zea mays L., var. Dekalb 535, CORN); test: Post-emerge test, crop safety; conditions: post-emerge, 14 days after application, rating scale 0-100
Summary of the method: as §3

[16] = tested on: sicklepod (Cassia obtusifolia, CASOB); test: Pre-emerge test, greenhouse herbicide activity screening; conditions: pre-emerge, 14 days after application, rating scale 0-100
Summary of the method: as §3

[17] = tested on: lambsquarters (Chenopodium album, CHEAL); test: as above; conditions: pre-emerge, 14 days after application, rating scale 0-100
Summary of the method: as §3

[18] = tested on: large crabgrass (Digitaria sanguinalis, DIGSA); test: as above; conditions: pre-emerge, 14 days after application, rating scale 0-100
Summary of the method: as §3

[19] = tested on: ivyleaf morningglory (Ipomoea hederacea, IPOHE); test: as above; conditions: pre-emerge, 14 days after application, rating scale 0-100
Summary of the method: as §3

[20] = tested on: johnsongrass (Sorghum halepense, SORHA); test: as above; conditions: pre-emerge, 14 days after application, rating scale 0-100
Summary of the method: as §3

[21] = tested on: barnyardgrass (Echinochloa crus-galli, ECHCG); test: as above; conditions: pre-emerge, 14 days after application, rating scale 0-100
Summary of the method: as §3

[22] = tested on: green foxtail (Setaria viridis, SETVI); test: as above; conditions: pre-emerge, 14 days after application, rating scale 0-100
Summary of the method: as §3

[23] = tested on: velvetleaf (Abutilon theophrasti, ABUTH); test: as above; conditions: pre-emerge, 14 days after application, rating scale 0-100
Summary of the method: as §3

CCOC(=O)C(Cl)Cc1c(OC)c(Cl)cc(F)c1-c1nn(C)c(C(F)(F)F)c1Cl (stereo not shown) [14-56]
10: phytotoxicity rating RICE ([1]; 63 g ai/ha) | phytotoxicity rating RICE ([1]; 250 g ai/ha) | Post-emerge Herbicidal Activity DIGSA (phytotoxicity rating) ([7]; 63 g ai/ha) | Post-emerge Herbicidal Activity CORN (crop damage rating) ([15]; 63 g ai/ha) | phytotoxicity rating CASOB ([16]; 250 g ai/ha)
0: phytotoxicity rating CORN ([2]; 63 g ai/ha) | phytotoxicity rating CORN ([2]; 250 g ai/ha) | Post-emerge Herbicidal Activity RICE (crop damage rating) ([14]; 63 g ai/ha) | phytotoxicity rating CASOB ([16]; 63 g ai/ha) | phytotoxicity rating IPOHE ([19]; 63 g ai/ha) | phytotoxicity rating IPOHE ([19]; 250 g ai/ha) | phytotoxicity rating SORHA ([20]; 63 g ai/ha) | phytotoxicity rating ECHCG ([21]; 63 g ai/ha) | phytotoxicity rating ECHCG ([21]; 250 g ai/ha)
20: Post-emerge Herbicidal Activity ECHCG (phytotoxicity rating) ([10]; 63 g ai/ha) | phytotoxicity rating SETVI ([22]; 63 g ai/ha)
80: Post-emerge Herbicidal Activity AMBEL (phytotoxicity rating) ([5]; 250 g ai/ha) | Post-emerge Herbicidal Activity ECHCG (phytotoxicity rating) ([10]; 250 g ai/ha) | phytotoxicity rating CHEAL ([17]; 63 g ai/ha)
100: Post-emerge Herbicidal Activity AMARE (phytotoxicity rating) ([3]; 63 g ai/ha, rating scale 0-100 (0 no damage, 100 complete death)) | Post-emerge Herbicidal Activity AMARE (phytotoxicity rating) ([3]; 250 g ai/ha, rating scale 0-100) | Post-emerge Herbicidal Activity CHEAL (phytotoxicity rating) ([6]; 250 g ai/ha) | Post-emerge Herbicidal Activity IPOHE (phytotoxicity rating) ([8]; 63 g ai/ha) | Post-emerge Herbicidal Activity IPOHE (phytotoxicity rating) ([8]; 250 g ai/ha) | Post-emerge Herbicidal Activity ABUTH (phytotoxicity rating) ([12]; 250 g ai/ha) | phytotoxicity rating AMARE ([13]; 63 g ai/ha) | phytotoxicity rating AMARE ([13]; 250 g ai/ha) | phytotoxicity rating CHEAL ([17]; 250 g ai/ha)
50: Post-emerge Herbicidal Activity DIGSA (phytotoxicity rating) ([7]; 250 g ai/ha)
99: Post-emerge Herbicidal Activity CHEAL (phytotoxicity rating) ([6]; 63 g ai/ha)
70: Post-emerge Herbicidal Activity SORHA (phytotoxicity rating) ([9]; 250 g ai/ha) | Post-emerge Herbicidal Activity SETVI (phytotoxicity rating) ([11]; 250 g ai/ha) | Post-emerge Herbicidal Activity ABUTH (phytotoxicity rating) ([12]; 63 g ai/ha) | phytotoxicity rating SETVI ([22]; 250 g ai/ha)
90: Post-emerge Herbicidal Activity AMBEL (phytotoxicity rating) ([5]; 63 g ai/ha)
60: phytotoxicity rating ABUTH ([23]; 250 g ai/ha)
25: Post-emerge Herbicidal Activity RICE (crop damage rating) ([14]; 250 g ai/ha)
30: Post-emerge Herbicidal Activity CASOB (phytotoxicity rating) ([4]; 63 g ai/ha) | Post-emerge Herbicidal Activity SORHA (phytotoxicity rating) ([9]; 63 g ai/ha) | Post-emerge Herbicidal Activity SETVI (phytotoxicity rating) ([11]; 63 g ai/ha) | Post-emerge Herbicidal Activity CORN (crop damage rating) ([15]; 250 g ai/ha) | phytotoxicity rating DIGSA ([18]; 63 g ai/ha) | phytotoxicity rating SORHA ([20]; 250 g ai/ha) | phytotoxicity rating ABUTH ([23]; 63 g ai/ha)
40: Post-emerge Herbicidal Activity CASOB (phytotoxicity rating) ([4]; 250 g ai/ha) | phytotoxicity rating DIGSA ([18]; 250 g ai/ha)
